Data as given in patent publication US11229622B2, “Cosmetological and pharmaceutical composition based on combinatorial quercetin derivative” (priority 2017, dated 2022).

How the values were obtained:
[1] = Biological activity of fully substituted quercetins (test not specified)
[2] = test system: carrageenan edema of the foot; conditions: from references [14, 16]; cited from earlier work
SBP of white rats = assay: Antihypertensive effect in normotensive white rats; format: in vivo; conditions: for Antihypertensive effect, %: intravenous, after 3 hours, Octadine 6.2 mg/kg, Greenflo 5.0 mg/kg (as thick chlorophyllipt extract), 0.025 mmol/kg
Method: The antihypertensive effect of the drugs was evaluated after 3 hours of observation. Digital data table.
For an objective comparison of the activity of the studied substances, ED30 was experimentally established (a unit of action that causes a decrease in SBP by 30%) for each drug. For this purpose, the value of the hypotensive effect of various doses of substances in three groups of five white rats was determined in experiment, the arithmetic mean of the obtained series and their standard errors were calculated. Then, digital data was plotted and ED30 was calculated.
An indicator of the true hypotensive effect of a new chemical is its ability to lower pathologically elevated SBP. To solve this problem, 5 adult white rats with spontaneous hypertension (weight 260-280 g) were used, in which, before the experiment, the level of SBP averaged 180±1.7 mm Hg. For comparison, an experiment was conducted on 5 white rats with normal SBP. 17.

[3] = test system: systemic blood pressure of rabbits; assay: Antihypertensive effect in rabbits; format: in vivo; conditions: intravenous, 3 hours, Octadine 15.0 mg/kg (0.06 mmol/kg), Greenflo 10.0 mg/kg (0.05 mmol/kg)
[4] = test system: systemic blood pressure of cats; assay: Antihypertensive effect in cats; format: in vivo; conditions: 3 hours, Octadine 20.0 mg/kg (0.08 mmol/kg), Greenflo 10.0 mg/kg (0.05 mmol/kg)

Q: With `O=C(O)CCC(=O)Oc1cc(OC(=O)CCC(=O)O)c2c(=O)c(OC(=O)CCC(=O)O)c(-c3ccc(OC(=O)CCC(=O)O)c(OC(=O)CCC(=O)O)c3)oc2c1` [Fully succinylated quercetin, pentasuccinyl quercetin] as the compound, how does the biological activity [1] read?
A: Its biological activity is “did not exhibit biological activity”.

Q: With `O=C(O)Cc1ccccc1Nc1c(Cl)cccc1Cl` [DN, sodium diclofenac] as the compound, how does the “ED 50, mg/kg” value [2] read?
A: The value was 8.0 [14, 16] mg/kg.

Q: Which results are given for `N=C(N)NCCN1CCCCCCC1` [Octadine]?
A: The effect, % (hypotensive) (SBP of white rats; dose 5.0 mg/kg): 18.0 ± 2.7%; The effect, % (hypotensive) (SBP of white rats; dose 10.0 mg/kg): 26.0 ± 1.5%; The effect, % (hypotensive) (SBP of white rats; dose 20.0 mg/kg): 33.0 ± 4.9%; Antihypertensive effect, % (SBP of white rats): 19.7 ± 2.2%; Antihypertensive effect, % (SBP of white rats; listed as octadine): 19.7±2.2%; Antihypertensive effect, % [3]: 32.0 ± 6.1%; Antihypertensive effect, % [4]: 35.0 ± 9.9%
